From article PMC3434039, “Overexpression of an exotic thermotolerant β-glucosidase in trichoderma reesei and its significant increase in cellulolytic activity and saccharification of barley straw” (Microbial Cell Factories, 2012)

Target: T1, Periconia sp. BGLI (recombinant β-glucosidase, bgl1) (Periconia sp. BCC 2871, UniProt A9UIG0, T284I/N305T)
T1 construct: full-length bgl1 (2601 bp cDNA, own signal peptide) expressed in T. reesei QM9414 under tef1 promoter, secreted, culture supernatant; predicted about 95 kDa, glycosylated
T1 sequence (A9UIG0 entry or part of it T284I/N305T): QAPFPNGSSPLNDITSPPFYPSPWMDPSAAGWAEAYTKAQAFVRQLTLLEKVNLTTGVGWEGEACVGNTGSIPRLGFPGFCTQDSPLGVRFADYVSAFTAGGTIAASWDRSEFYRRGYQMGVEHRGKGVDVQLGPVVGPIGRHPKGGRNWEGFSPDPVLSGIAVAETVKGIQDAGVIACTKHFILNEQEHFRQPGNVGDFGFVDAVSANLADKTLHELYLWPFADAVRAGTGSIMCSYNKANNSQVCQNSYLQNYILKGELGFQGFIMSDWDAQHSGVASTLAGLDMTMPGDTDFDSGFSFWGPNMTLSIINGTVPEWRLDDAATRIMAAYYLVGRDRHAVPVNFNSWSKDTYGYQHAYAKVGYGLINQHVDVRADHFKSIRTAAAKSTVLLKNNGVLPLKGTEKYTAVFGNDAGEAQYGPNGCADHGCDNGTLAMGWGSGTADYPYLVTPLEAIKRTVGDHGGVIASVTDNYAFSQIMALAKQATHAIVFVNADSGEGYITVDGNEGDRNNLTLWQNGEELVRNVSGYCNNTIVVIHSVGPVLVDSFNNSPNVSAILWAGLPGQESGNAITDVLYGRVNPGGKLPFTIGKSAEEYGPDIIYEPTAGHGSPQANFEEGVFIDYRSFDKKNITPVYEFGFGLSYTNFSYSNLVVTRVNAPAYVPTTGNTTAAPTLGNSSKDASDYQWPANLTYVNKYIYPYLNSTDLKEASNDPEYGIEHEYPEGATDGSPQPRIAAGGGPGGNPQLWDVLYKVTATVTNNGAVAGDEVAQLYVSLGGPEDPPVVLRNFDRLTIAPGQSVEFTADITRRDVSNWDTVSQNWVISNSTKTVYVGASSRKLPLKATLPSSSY
Test: MUG zymogram after native PAGE of culture supernatant
Type: biochemical
Conditions: 5 mM MUG, 50 mM sodium citrate, pH 5.0, 70 °C, 10 min
Description: MUG zymogram after native PAGE of culture supernatant on Periconia sp.

Structure (SMILES): Cc1cc(=O)oc2cc(O[C@@H]3O[C@H](CO)[C@@H](O)[C@H](O)[C@H]3O)ccc12 [4-methylumbelliferyl β-D-glucopyranoside]
- MUG zymogram after native PAGE of culture supernatant: second active β- glucosidase with higher molecular weight was only obtained from the transformants
